Where two headings read alike, the source gives them in different places.
Tests used:
hOAT [1] = biological target: T1, hOAT (Homo sapiens, UniProt P04181); assay: coupled enzyme hOAT assay; assay type: biochemical
T1 construct: made in house
T1 sequence (P04181 36-439 limits assumed): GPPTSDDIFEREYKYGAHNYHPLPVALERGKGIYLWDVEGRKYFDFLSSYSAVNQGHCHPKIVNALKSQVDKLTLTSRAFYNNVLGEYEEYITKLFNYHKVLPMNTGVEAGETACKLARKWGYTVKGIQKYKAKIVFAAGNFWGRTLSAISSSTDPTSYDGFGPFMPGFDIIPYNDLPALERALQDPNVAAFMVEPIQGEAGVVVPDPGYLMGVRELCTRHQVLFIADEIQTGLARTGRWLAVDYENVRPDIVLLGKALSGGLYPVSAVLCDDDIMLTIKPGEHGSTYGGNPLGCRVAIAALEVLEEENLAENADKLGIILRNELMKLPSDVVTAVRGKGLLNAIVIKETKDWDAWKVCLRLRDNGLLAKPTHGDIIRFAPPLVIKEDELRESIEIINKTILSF
Procedure: With inhibitors in hand, we tested for activity in a previously developed coupled enzyme hOAT assay.^9,21
hOAT and PYCR1 were expressed, grown, and purified according to literature procedures.^22,23 GABA-AT was isolated from pig brains and purified according to literature procedure.^16 Coupled enzyme assays for GABA-AT and hOAT were carried out according to previous procedures.^15,21 All chemical were purchased from Sigma Aldrich, Acros Organics, or Matrix Scientific and used without further purification. Anhydrous solvents (THF, CH2Cl2, DMF) were purified before use by passing through a column composed of activated alumina and a supported copper redox catalyst. Yields refer to chromatographically and spectroscopically (^1H-NMR) homogeneous material. Analytical thin-layer chromatography (TLC) was performed using Merck Silica Gel 60 Å F-254 precoated plates (0.25 mm thickness), and components were visualized by ultraviolet light (254 nm) and/or ceric ammonium molybdate stain. Flash column chromatography was performed on a Teledyne Combiflash Rf Plus automated flash purification system with various Teledyne cartridges (4-80 g, 40-63 μm, 60 Å). Purifications were performed with hexanes and ethyl acetate unless otherwise noted. ^1H and ^13C NMR spectra were recorded on a Bruker Avance-III NMR spectrometer at 500 MHz and 126 MHz, respectively, in CDCl3 or D2O. Chemical shifts were reported in ppm, multiplicities are indicated by s=singlet, d=doublet, t=triplet, q=quartet, sep=septet, dd=doublet of doublet, dt=doublet of triplet, m=multiplet, br=broad resonance. Coupling constants were reported in Hz. High resolution mass spectral data were obtained on an Agilent 6210 LC-TOF spectrometer in the positive ion mode using electrospray ionization with an Agilent G1312A HPLC pump and an Agilent G1367B autoinjector at the Integrated Molecular Structure Education and Research Center (IMSERC), Northwestern University. Analytical HPLC was performed by using a reserved-phase Agilent Infinity 1260 HPLC with a Phenomenex Kintex C-18 column (50×2.1 mm, 2.6 μm), detecting with UV absorbance at 254 nm.

hOAT [2] = biological target: T1, hOAT; details: earlier work, cited from earlier work
HCC = HCC infected/bearing mice; cited from earlier work

Ki (hOAT [1]; hOAT inactivation) [µM] | kinact (hOAT [1]; hOAT inactivation, read-out: kinact (converted)) [s⁻¹] | kinact/KI (hOAT [1]; hOAT inactivation, read-out: kinact/KI (converted)) [M⁻¹ s⁻¹] | activity against hOAT (in words) (hOAT [1]; hydrochloride) | activity against hOAT (in words) (hOAT [1]; listed as (1S,3S,Z)-3-amino-4-(1,1,1-trifluoro-3-methoxy-3-oxopropan-2-ylidene)cyclopentan, hydrochloride) | activity against hOAT (in words) (hOAT [1]) | SMILES | kinact (hOAT [1]) [s⁻¹] | kinact/KI (hOAT [1]) [M⁻¹ s⁻¹] | inhibition/inactivation of human OAT (in words) (hOAT [2]) | inhibition/inactivation of human OAT (in words) (hOAT [2]; listed as (1S,3 S)-3-amino-4-(perfluoropropan-2-ylidene)cyclopentane-1-carboxylic acid) | HCC marker protein alpha-fetoprotein (HCC) | tumor size (HCC)
130 | 0.00167 | 12.2 | similarly potent inhibitor of hOAT | active | – | COC(=O)/C(=C1\C[C@H](C(=O)O)C[C@@H]1N)C(F)(F)F.Cl [Compound 10, (1S,3S,Z)-3-amino-4-(1,1,1-trifluoro-3-methoxy-3-oxopropan-2-ylidene)cyclopentane-1-carboxylic acid hydrochloride] | – | – | – | – | – | –
≥ 2000 | – | – | – | – | inactive | COC(=O)/C(=C1/C[C@H](C(=O)O)C[C@@H]1N)C(F)(F)F.Cl [Compound 11, (1S,3S,E)-3-amino-4-(1,1,1-trifluoro-3-methoxy-3-oxopropan-2-ylidene)cyclopentane-1-carboxylic acid hydrochloride] | – | – | – | – | – | –

SMILES | Ki (hOAT [1]; hOAT inactivation) [µM] | kinact (hOAT [1]; hOAT inactivation, read-out: kinact (converted)) [s⁻¹] | kinact/KI (hOAT [1]; hOAT inactivation, read-out: kinact/KI (converted)) [M⁻¹ s⁻¹] | activity against hOAT (in words) (hOAT [1]; hydrochloride) | activity against hOAT (in words) (hOAT [1]; listed as (1S,3S,Z)-3-amino-4-(1,1,1-trifluoro-3-methoxy-3-oxopropan-2-ylidene)cyclopentan, hydrochloride) | activity against hOAT (in words) (hOAT [1]) | kinact (hOAT [1]) [s⁻¹] | kinact/KI (hOAT [1]) [M⁻¹ s⁻¹] | inhibition/inactivation of human OAT (in words) (hOAT [2]) | inhibition/inactivation of human OAT (in words) (hOAT [2]; listed as (1S,3 S)-3-amino-4-(perfluoropropan-2-ylidene)cyclopentane-1-carboxylic acid) | HCC marker protein alpha-fetoprotein (HCC) | tumor size (HCC)
N[C@H]1C[C@@H](C(=O)O)CC1=C(C(F)(F)F)C(F)(F)F [Compound 1, (1S,3S)-3-amino-4-(perfluoropropan-2-ylidene)cyclopentane-1-carboxylic acid] | 53 | – | – | – | – | – | 0.00133 | 25.7 | potent inhibitor | potent inactivator | decrease | decrease
